Patent EP2998000A1, “COMBINATION THERAPY FOR CANCER” (priority 2014, dated 2016)

Experiments:
[1] = tested on: tumour cells; conditions: for Cytotoxicity E. coli: change of drug cytotoxicity on tumour cells after co-incubation with E. coli, bacteria removed by filtration, MTS, Up/Down/NC
[2] = tested on: tumour cells; assay: in vitro cytotoxicity screen of drugs co-incubated with L. welshimeri (tumour cell survival assay, MTS); conditions: change of drug cytotoxicity on tumour cells after co-incubation with L. welshimeri, bacteria removed by filtration, Up/Down/NC
[3] = tested on: Subcutaneous flank CT26 tumours; assay: murine model of intratumoural bacterial effects on chemotherapy
[4] = tested on: 4T1 Luc cells; assay: tumour cell survival assay, drug co-incubated with E. coli, supernatant applied to 4T1 Luc cells; format: cell-based, mouse; conditions: gemcitabine 10 µM co-incubated with E. coli at different cfu/ml, Figure 1b

SMILES | Cytotoxicity E. coli [1] | also measured
CC1=CC(=O)c2ccccc2C1=O [Menadione] | Down | –
OC[C@H]1O[C@@H](n2cnc3c(S)ncnc32)C[C@@H]1O [6-Mercaptopurine-2’-deoxyriboside] | Up | –
Nc1nc(F)nc2c1ncn2[C@@H]1O[C@H](COP(=O)(O)O)[C@@H](O)[C@@H]1O [Fludarabine de phosphate] | Up | Cytotoxicity L. welshimeri [2]: Up
O=c1[nH]c(=O)n(C2CCCO2)cc1F (centres unmarked) [Tegafur] | increasing and Up | –
O=C1c2c(O)ccc(O)c2C(=O)c2c(NCCNCCO)ccc(NCCNCCO)c21 [Mitoxantrone] | Down | –
CC(=O)[C@]1(O)Cc2c(O)c3c(c(O)c2[C@@H](O[C@H]2C[C@H](N)[C@H](O)[C@H](C)O2)C1)C(=O)c1ccccc1C3=O [Idarubicin] | Down | –
CC1(C)CCC2=C(O1)c1ccccc1C(=O)C2=O [B-Lapachone] | Down | –
NC(=O)c1cc(N2CC2)c([N+](=O)[O-])cc1[N+](=O)[O-] [CB1954] | Up | median survival post Day 0 ([3]; CB1954 + bacteria group: E. coli i.t., CB1954 20 mg/kg i.p.): 26 days; median survival post Day 0 ([3]; CB1954 alone group: PBS i.t., CB1954 20 mg/kg i.p.): 8 days; Cytotoxicity L. welshimeri [2]: Up
Nc1nc(=O)[nH]cc1F [5-fluorocytosine] | Up | –
Nc1ncnc2c1ncn2[C@@H]1O[C@H](CO)[C@@H](O)[C@@H]1O [Vidarabine] | decreasing and Down | –
Nc1nc(Cl)nc2c1ncn2[C@H]1C[C@H](O)[C@@H](CO)O1 [Cladribine] | Down | Cytotoxicity L. welshimeri [2]: Down
COc1cc([C@@H]2c3cc4c(cc3[C@@H](O[C@@H]3O[C@@H]5CO[C@@H](C)O[C@H]5[C@H](O)[C@H]3O)[C@H]3COC(=O)[C@H]23)OCO4)cc(OC)c1OP(=O)(O)O [Etoposide phosphate] | decreasing and Down | –
COc1cccc2c1C(=O)c1c(O)c3c(c(O)c1C2=O)C[C@@](O)(C(C)=O)C[C@@H]3O[C@H]1C[C@H](N)[C@H](O)[C@H](C)O1 [Daunorubicin] | Down | Cytotoxicity L. welshimeri [2]: Down
COc1cccc2c1C(=O)c1c(O)c3c(c(O)c1C2=O)C[C@@](O)(C(=O)CO)C[C@@H]3O[C@H]1C[C@H](N)[C@H](O)[C@H](C)O1 [Doxorubicin] | Down | –
Nc1ccn([C@@H]2O[C@H](CO)[C@@H](O)C2(F)F)c(=O)n1 [Gemcitabine] | decreasing and Down | tumour volume ([3]; gemcitabine + bacteria group compared with gemcitabine alone group, various time points, gemcitabine 60 mg/kg i.p., E. coli i.t.): Significantly increased; median survival post Day 0 ([3]; gemcitabine + bacteria group: E. coli i.t., gemcitabine 60 mg/kg i.p.): 17 days; median survival post Day 0 ([3]; gemcitabine alone group: PBS i.t., gemcitabine 60 mg/kg i.p.): 28 days; cytotoxicity after incubation with heat-inactivated lysate (or intact bacteria) ([1]; gemcitabine 10 µM, E. coli heat-inactivated at 95 °C, Figure 2): no reduction in cytotoxicity; efficacy (tumour cell survival) [4]: decreased
